Test [1] addresses T1, human MOR signaling through Gαi1 (Homo sapiens, UniProt P35372).
T1 construct: host or cells: HEK 293T, transient
Type of test: cell-based.

Test [2] deals with human MOR (Homo sapiens, UniProt P35372). Description: [3H]naloxone competition binding, MOR-CHO cell membranes, low-affinity buffer. The following applies: fold change of Ki, vehicle vs 10 μM BMS-986122.
Description: Chinese hamster ovary cells stably expressing the human MOR (MOR-CHO; obtained from Dr. George Uhl, NIDA Intramural Research Program, Baltimore, MD) were cultured in 10 cm dishes in Dulbecco’s modified Eagle’s medium (DMEM) supplemented with 5% fetal bovine serum and 100 U/mL penicillin–streptomycin at 37 °C in a 10% CO2 atmosphere. Cell membranes were isolated and homogenized as previously described, and membrane protein concentrations were determined with bovine serum albumin as the control as previously described. Membranes were stored at −80 °C until use.
[^3H]­Naloxone was used at a final concentration of 1.0 nM, and nonspecific binding was measured using 10 μM unlabeled naloxone. Membranes were added last to the incubation tube. All assays were performed at 25 °C and terminated by rapid vacuum filtration through Whatman #32 glass fiber filters using a Brandel cell harvester (Biomedical Research and Development Laboratories Inc., Gaithersburg, MD) followed by three ice-cold washes with 50 mM Tris-HCl, pH 7.4. Samples were collected and counted in 2 mL of Ecoscint A scintillation fluid (National Diagnostics, Atlanta, GA) for 2 min each using a LS 6500 scintillation counter (Beckman Coulter Inc., Fullerton, CA).
For competition binding experiments, the specific binding of the radioligand in the absence of other competing compounds was set at 100%. The percent of control binding was calculated for increasing concentrations of the competing compounds. A three- or four-parameter logistic curve was fit to the data by using SigmaPlot 11 (Systat Software Inc., San Jose, CA). […] Ki values were calculated as described previously. Statistical differences between Ki values were calculated using a two-tailed Student’s t test. Receptor binding data were reported as the mean Ki value ± SEM from three separate experiments performed in triplicate.
In test [3] the target is T2, human MOR signaling through Gαi2 (Homo sapiens, UniProt P35372).
T2 construct: host or cells: HEK 293T, transient
Type of test: cell-based.

Test [4] deals with T3, human MOR signaling through Gαz (Homo sapiens, UniProt P35372).
T3 construct: host or cells: HEK 293T, transient
Type of test: cell-based.

For test [5], the target named is T4, human MOR signaling through GαoA (Homo sapiens, UniProt P35372).
T4 construct: host or cells: HEK 293T, transient
Type of test: cell-based.

Test [6] has as its target T5, human MOR signaling through Gαi3 (Homo sapiens, UniProt P35372).
T5 construct: host or cells: HEK 293T, transient
Type of test: cell-based.

Test [7] deals with T6, human MOR signaling through GαoB (Homo sapiens, UniProt P35372).
T6 construct: host or cells: HEK 293T, transient
Type of test: cell-based.

Test [8] deals with T7, human MOR signaling through Gαz with RGS20 (Homo sapiens, UniProt P35372).
T7 construct: host or cells: HEK 293T, transient
Description: nanoBRET assay, MOR signaling through Gαz with RGS20 (RGSz1) coexpression. Type of test: cell-based. The settings on record: RGS20 coexpressed.

For test [9], the target named is T8, human MOR signaling through GαoA, GαoB and Gαi3 (Homo sapiens, UniProt P35372).
T8 construct: host or cells: HEK 293T, transient
Description: TruPATH BRET2 assay in HEK 293T cells compared with nanoBRET. The settings on record: GαoB and Gαi3, 10 μM BMS-986122, Student's t test. Type of test: cell-based. (In general: BRET reads energy transfer from a luciferase to a nearby fluorophore.)

The target in test [10] is T9, MOR signaling through GαoB-i3ct (Homo sapiens, UniProt P35372).
T9 construct: expressed in transfected cells; host or cells: HEK 293T (inferred: same nanoBRET system)
Description: nanoBRET assay, MOR signaling through GαoB-i3ct chimera (data not shown). Type of test: cell-based.

The subject of test [11] is human MOR signaling through different Gα subunits. Description: nanoBRET assay, comparison or average across Gα subunits. Type of test: cell-based. The following applies: for Average maximal increase in potency (EC50) caused by BMS-986122: average over Gα subunits, 10 μM BMS-986122.
Test [12] has as its target human mu opioid receptor (MOR) (human) (UniProt P35372). Description: radioligand binding; competition with 1.0 nM [3H]naloxone on MOR-CHO cell membranes (50 ug membrane protein), in the presence of 10 uM BMS-986122; 60 min, 25 C; 50 mM Tris-HCl pH 7.4, 100 mM NaCl, 5 mM MgCl2, 1 mM EDTA, 1 mM DTT, 50 uM GDP (low-affinity buffer).
Test [13] shares this target.
Test [14] has the same target. Description: radioligand binding; competition with 1.0 nM [3H]naloxone on MOR-CHO cell membranes (50 ug membrane protein), vehicle; 60 min, 25 C; 50 mM Tris-HCl pH 7.4, 100 mM NaCl, 5 mM MgCl2, 1 mM EDTA, 1 mM DTT, 50 uM GDP (low-affinity buffer).

“And” between values parts separate entries of the source, which are not always exact repeats. Identical values can stand only once. Marks after values point to notes of the source that are not given here.

As usually defined, the Emax is the greatest response seen or fitted, relative to the assay's reference. Broadly, the Ki is the dissociation constant of the complex between target and ligand, obtained from inhibition or displacement.

Chain of human mu opioid receptor (MOR) (human) (P35372 whole entry): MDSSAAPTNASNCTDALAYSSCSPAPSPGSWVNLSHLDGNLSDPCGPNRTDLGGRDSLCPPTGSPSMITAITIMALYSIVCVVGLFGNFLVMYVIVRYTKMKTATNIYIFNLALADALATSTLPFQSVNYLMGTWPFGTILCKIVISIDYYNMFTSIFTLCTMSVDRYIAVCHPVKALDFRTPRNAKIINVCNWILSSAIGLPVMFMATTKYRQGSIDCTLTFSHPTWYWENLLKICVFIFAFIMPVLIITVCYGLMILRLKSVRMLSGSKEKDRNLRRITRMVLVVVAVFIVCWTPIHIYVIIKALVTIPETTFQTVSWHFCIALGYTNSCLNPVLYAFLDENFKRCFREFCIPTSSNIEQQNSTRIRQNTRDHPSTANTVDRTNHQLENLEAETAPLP
T3 sequence (P35372 whole entry): as above
T3 sequence (P19086 2-355 partner limits assumed): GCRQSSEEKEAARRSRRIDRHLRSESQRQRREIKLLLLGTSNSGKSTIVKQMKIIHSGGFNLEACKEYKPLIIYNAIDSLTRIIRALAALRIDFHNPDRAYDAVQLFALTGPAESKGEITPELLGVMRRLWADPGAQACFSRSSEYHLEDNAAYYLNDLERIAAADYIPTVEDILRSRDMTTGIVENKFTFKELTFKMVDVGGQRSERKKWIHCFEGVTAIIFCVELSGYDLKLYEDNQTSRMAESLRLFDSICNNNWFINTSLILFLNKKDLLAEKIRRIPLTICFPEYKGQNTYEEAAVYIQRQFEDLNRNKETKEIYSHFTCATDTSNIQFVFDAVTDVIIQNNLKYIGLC
T1 sequence (P35372 whole entry): as the sequence (P35372 whole entry) above
T1 sequence (P63096 2-354 partner limits assumed): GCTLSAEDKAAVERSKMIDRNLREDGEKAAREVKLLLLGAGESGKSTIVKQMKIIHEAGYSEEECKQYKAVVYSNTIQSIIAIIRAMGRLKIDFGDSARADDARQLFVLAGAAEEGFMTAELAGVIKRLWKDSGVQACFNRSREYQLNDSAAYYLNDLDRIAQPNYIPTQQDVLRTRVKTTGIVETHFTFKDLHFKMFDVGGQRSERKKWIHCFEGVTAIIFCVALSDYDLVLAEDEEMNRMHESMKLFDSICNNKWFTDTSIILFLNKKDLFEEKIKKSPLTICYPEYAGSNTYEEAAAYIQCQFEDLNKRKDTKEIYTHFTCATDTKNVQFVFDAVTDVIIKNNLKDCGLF
T4 sequence (P35372 whole entry): as the sequence (P35372 whole entry) above
T4 sequence (P09471 2-354 partner limits assumed): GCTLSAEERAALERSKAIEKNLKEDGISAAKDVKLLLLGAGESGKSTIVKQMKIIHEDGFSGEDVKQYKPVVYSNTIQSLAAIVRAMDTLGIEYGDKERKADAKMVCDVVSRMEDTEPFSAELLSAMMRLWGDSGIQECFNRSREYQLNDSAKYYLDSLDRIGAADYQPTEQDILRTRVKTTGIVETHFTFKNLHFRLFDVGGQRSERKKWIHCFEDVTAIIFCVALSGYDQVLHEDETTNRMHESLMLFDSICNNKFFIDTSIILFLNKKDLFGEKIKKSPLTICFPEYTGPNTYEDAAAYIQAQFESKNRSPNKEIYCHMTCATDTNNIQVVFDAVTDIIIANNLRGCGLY
T5 sequence (P35372 whole entry): as the sequence (P35372 whole entry) above
T5 sequence (P08754 2-354 partner limits assumed): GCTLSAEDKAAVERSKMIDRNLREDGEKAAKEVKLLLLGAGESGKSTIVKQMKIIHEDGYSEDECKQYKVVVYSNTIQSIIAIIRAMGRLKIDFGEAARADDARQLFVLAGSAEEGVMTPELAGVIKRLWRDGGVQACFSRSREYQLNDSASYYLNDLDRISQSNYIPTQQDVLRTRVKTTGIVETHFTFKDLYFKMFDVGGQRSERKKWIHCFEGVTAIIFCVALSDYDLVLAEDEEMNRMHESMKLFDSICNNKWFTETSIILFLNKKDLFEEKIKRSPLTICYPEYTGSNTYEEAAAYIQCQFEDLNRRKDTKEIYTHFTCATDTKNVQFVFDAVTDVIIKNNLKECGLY
T2 sequence (P35372 whole entry): as the sequence (P35372 whole entry) above
T2 sequence (P04899 2-355 partner limits assumed): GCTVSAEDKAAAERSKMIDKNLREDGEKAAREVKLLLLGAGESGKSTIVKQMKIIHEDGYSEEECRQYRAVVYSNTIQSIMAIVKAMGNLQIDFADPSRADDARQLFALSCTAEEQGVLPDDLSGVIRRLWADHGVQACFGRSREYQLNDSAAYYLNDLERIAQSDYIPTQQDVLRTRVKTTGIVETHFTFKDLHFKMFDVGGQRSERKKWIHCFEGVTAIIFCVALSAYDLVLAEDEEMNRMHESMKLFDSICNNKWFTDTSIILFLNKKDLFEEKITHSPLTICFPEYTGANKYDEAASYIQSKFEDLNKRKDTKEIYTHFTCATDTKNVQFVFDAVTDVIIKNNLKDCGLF
Chain of human MOR (P35372 whole entry): as the sequence (P35372 whole entry) above
T6 sequence (P35372 whole entry): as above
T6 sequence (P09471 2-354 isoform P09471-2 partner limits assumed): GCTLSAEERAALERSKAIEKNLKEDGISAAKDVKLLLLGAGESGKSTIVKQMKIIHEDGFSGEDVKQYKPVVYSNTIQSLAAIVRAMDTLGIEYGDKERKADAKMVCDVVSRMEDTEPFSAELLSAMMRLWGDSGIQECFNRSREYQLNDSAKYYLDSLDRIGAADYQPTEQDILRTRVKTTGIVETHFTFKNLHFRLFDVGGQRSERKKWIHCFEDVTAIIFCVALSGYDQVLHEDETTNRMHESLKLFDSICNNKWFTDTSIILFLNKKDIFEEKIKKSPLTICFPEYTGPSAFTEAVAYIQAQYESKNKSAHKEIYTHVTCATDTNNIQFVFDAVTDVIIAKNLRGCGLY
T9 sequence (P35372 whole entry): as the sequence (P35372 whole entry) above
T8 sequence (P35372 whole entry): as above
T7 sequence (P35372 whole entry): as above
T7 sequence (P19086 2-355 partner limits assumed): as the sequence (P19086 2-355 partner limits assumed) above

Consider `CC(C)=CCN1CCC2(C)c3cc(O)ccc3CC1C2C` (single isomer, unassigned; (-)) [(−)-Pentazocine], for which the Emax is 56 ± 1.4% and 105 ± 1.2% in test [1]; 35 ± 2.0% and 66 ± 4.3% in test [3]; 105 ± 1.8% and 110 ± 6.7% in [4]; 48 ± 2.2% and 88 ± 3.0% in test [5]; 70 ± 1.8% and 102 ± 1.8% in test [6]; 74 ± 0.33% and 96 ± 2.6% in test [7]. Moreover, the “Ki (Veh)/Ki (BMS)” value in test [2] is reported as 1.0 ns. The “Emax with RGS20 coexpression versus without” value in [8] is recorded as “dramatically reduced”.

Consider `CC[C@@H]1CN2CC[C@@]3(O)C(=Nc4cccc(OC)c43)[C@@H]2C[C@@H]1/C(=C\OC)C(=O)OC` [7-Hydroxymitragynine], for which, in [9], the “Δlog(τ) in TruPATH compared with nanoBRET” value is reported as “not statistically different”. In addition, in test [2], the “Ki (Veh)/Ki (BMS)” value is given as 1.1 ns. Moreover, in [10], the “Efficacy modulation by BMS-986122” value is on record as “reduced” and the Intrinsic efficacy result is reported as “increased substantially”. The Emax in test [4] was 33 ± 3.0% and 65 ± 4.1%.

As to `COc1cc(Br)ccc1C1SCCN1S(=O)(=O)c1ccc(Cl)cc1` (stereo not drawn) [BMS-986124], in [3], the “Antagonism of the effect of 3 μM BMS-986122 on the potency of DAMGO” value is given as “antagonized the effect of 3 μM BMS-986122, but not completely” and the “Antagonism of the effect of 3 μM BMS-986187 on the potency of DAMGO” value is “partially block the effect of 3 μM BMS-986187”.

Take `Cc1ccccc1COc1ccc(C2C3=C(CC(C)(C)CC3=O)OC3=C2C(=O)CC(C)(C)C3)cc1` [BMS-986187]: the “ΔΔlog(τ)oB-i3” value in test [11] (7-hydroxymitragnine as agonist, 10 μM PAM, relative transduction coefficients compared between Gαi3 and GαoB) is on record as 0.157.

On to `C[C@@H](NC(=O)[C@@H](N)Cc1ccc(O)cc1)C(=O)NCC(=O)N(C)[C@@H](Cc1ccccc1)C(=O)NCCO` [DAMGO, [D-Ala 2, N-MePhe 4, Gly-ol]-enkephalin], for which the ΔpEC50 in test [1] is given as 0.596 ± 0.023; in test [3], 0.712 ± 0.064; in test [4], 0.529 ± 0.087; in [5], 0.667 ± 0.022; in test [6], 0.467 ± 0.104; in test [7] it was 0.791 ± 0.109. The “Average maximal increase in potency (EC50) caused by BMS-986122” value in test [11] is recorded as 4.5 fold. In addition, the “Ki (Veh)/Ki (BMS)” value in test [2] is 6.8 ****.

On to `CSCC[C@H](NC(=O)[C@H](Cc1ccccc1)NC(=O)CNC(=O)CNC(=O)[C@@H](N)Cc1ccc(O)cc1)C(=O)O` [Met-Enkephalin, methionine-enkephalin], for which, in [11], the “Average maximal increase in potency (EC50) caused by BMS-986122” value was 3.8 fold.

Take “[D-Ala 2, N-MePhe 4, Gly-ol]-enkephalin (DAMGO) acetate (peptide)”: in [12], the Ki was determined as 35 nM. In [13], this molecule gave an EC50, nanoBRET G protein activation in HEK 293T cells, MOR signaling through Gαi1, vehicle of 58 nM; an EC50, nanoBRET G protein activation in HEK 293T cells, MOR signaling through Gαi2, vehicle of 46 nM; an EC50, nanoBRET G protein activation in HEK 293T cells, MOR signaling through Gαi2, with 10 μM BMS-986122 of 9.1 nM; an EC50, nanoBRET G protein activation in HEK 293T cells, MOR signaling through Gαi3, vehicle of 24 nM. In [13], this molecule showed an EC50, nanoBRET G protein activation in HEK 293T cells, MOR signaling through Gαi3, with 10 μM BMS-986122 of 7.3 nM; an EC50, nanoBRET G protein activation in HEK 293T cells, MOR signaling through GαoA, with 10 μM BMS-986122 of 10 nM; an EC50, nanoBRET G protein activation in HEK 293T cells, MOR signaling through GαoB, vehicle of 74 nM; an EC50, nanoBRET G protein activation in HEK 293T cells, MOR signaling through GαoB, with 10 μM BMS-986122 of 11 nM. Further, in test [13], the EC50, nanoBRET G protein activation in HEK 293T cells, MOR signaling through Gαz, vehicle is 10 nM and the EC50, nanoBRET G protein activation in HEK 293T cells, MOR signaling through Gαz, with 10 μM BMS-986122 came out at 3.2 nM. The same molecule came in with an inhibition constant (Ki) in [14] of 240 nM.

Regarding “methionine-enkephalin (met-enkephalin) acetate (peptide)”, the inhibition constant (Ki) in [12] is 48 nM. Moreover, in test [13], the EC50, nanoBRET G protein activation in HEK 293T cells, MOR signaling through Gαi1, vehicle was 52 nM; the EC50, nanoBRET G protein activation in HEK 293T cells, MOR signaling through Gαi1, with 10 μM BMS-986122 was found to be 10 nM; the EC50, nanoBRET G protein activation in HEK 293T cells, MOR signaling through Gαi3, with 10 μM BMS-986122 stood at 8.7 nM; the EC50, nanoBRET G protein activation in HEK 293T cells, MOR signaling through GαoA, vehicle stood at 53 nM. In [13], this molecule displayed an EC50, nanoBRET G protein activation in HEK 293T cells, MOR signaling through GαoB, vehicle of 53 nM; an EC50, nanoBRET G protein activation in HEK 293T cells, MOR signaling through GαoB, with 10 μM BMS-986122 of 14 nM; an EC50, nanoBRET G protein activation in HEK 293T cells, MOR signaling through Gαz, with 10 μM BMS-986122 of 17 nM.
